Source: patent US6358885B1, “Substituted phenylheterocyclic herbicides” (Mississippi State University, priority 1992, dated 2002)

Tests used:
ryegrass = experiment: Test C preemergence/postemergence greenhouse plant response rating 0 to 100; type: in vivo, Lolium multiflorum; settings: POSTEMERGENCE; for Plant response rating Ryegrass: 0 to 100 scale
How it was run: (§1)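 Compounds in non-phytotoxic solvent went onto sandy loam before emergence (seeded one day earlier) or onto plants at the one-to-four leaf stage. Duck salad was treated via flood water (~2.5 cm, maintained) over silt loam.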

sugar beet = experiment: as above; type: in vivo, Beta vulgaris; settings: POSTEMERGENCE; for Plant response rating, Sugar beet: 0 to 100 scale
How it was run: as §1

wild buckwheat = experiment: Test B preemergence/postemergence greenhouse plant response rating 0 to 10; type: in vivo, Polygonum convolvulus; settings: 0 to 10 scale
How it was run: (§2)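 Planted seeds are treated preemergence with compound dissolved in a non-phytotoxic solvent, while postemergence applications go onto plants of two to eighteen cm. Plants stay in the greenhouse twelve to sixteen days and are then rated visually relative to controls.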

blackgrass [1] = experiment: Test C preemergence/postemergence greenhouse plant response rating 0 to 100; type: in vivo, Alopecurus myosuroides; settings: POSTEMERGENCE; for Plant response rating, Blackgrass: 0 to 100 scale
How it was run: as §1

barley = experiment: Test B preemergence/postemergence greenhouse plant response rating 0 to 10; type: in vivo, Hordeum vulgare; settings: for Plant response rating, Barley: 0 to 10 scale
How it was run: as §2

bedstraw = experiment: as above; type: in vivo, Galium aparine; settings: for Plant response rating, Bedstraw: 0 to 10 scale
How it was run: as §2

cocklebur = experiment: as above; type: in vivo, Xanthium pensylvanicum; settings: for Plant response rating, Cocklebur: 0 to 10 scale
How it was run: as §2

rape = experiment: Test C preemergence/postemergence greenhouse plant response rating 0 to 100; type: in vivo, Brassica napus; settings: POSTEMERGENCE; for Plant response rating, Rape: 0 to 100 scale
How it was run: as §1

giant foxtail = experiment: as above; type: in vivo, Setaria faberii; settings: POSTEMERGENCE; for Plant response rating, Giant foxtail: 0 to 100 scale
How it was run: as §1

lambsquarters = experiment: as above; type: in vivo, Chenopodium album; settings: POSTEMERGENCE; for Plant response rating Lambsquarters: 0 to 100 scale
How it was run: as §1

barnyardgrass = experiment: Test C flood test plant response rating 0 to 100; type: in vivo, Echinochloa crus-galli; settings: for Plant response rating (0 to 100), Barnyardgrass: under POSTEMERGENCE head (flood test species); for Plant response rating, Barnyardgrass: flood test species listed under POSTEMERGENCE, 0 to 100 scale
How it was run: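 Compounds in non-phytotoxic solvent applied preemergence to sandy loam one day after planting, postemergence at the 1–4 leaf stage, or to ~2.5 cm floodwater over silt loam.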

corn = experiment: Test C preemergence/postemergence greenhouse plant response rating 0 to 100; type: in vivo, Zea mays; settings: POSTEMERGENCE; for Plant response rating, Corn: 0 to 100 scale
How it was run: as §1

cheatgrass = experiment: Test B preemergence/postemergence greenhouse plant response rating 0 to 10; type: in vivo, Bromus secalinus; settings: for Plant response rating, Cheatgrass: 0 to 10 scale
How it was run: as §2

duck salad = experiment: Test C flood test plant response rating 0 to 100; type: in vivo, Heteranthera limosa; settings: for Plant response rating Duck salad: flood test species listed under POSTEMERGENCE, 0 to 100 scale
How it was run: as §1

rice = experiment: Test B preemergence/postemergence greenhouse plant response rating 0 to 10; type: in vivo, Oryza sativa; settings: 0 to 10 scale
How it was run: as §2

blackgrass [2] = experiment: as above; type: in vivo, Alopecurus myosuroides; settings: for Plant response rating, Blackgrass: 0 to 10 scale
How it was run: as §2

cotton = experiment: as above; type: in vivo, Gossypium hirsutum; settings: for Plant response rating, Cotton: 0 to 10 scale
How it was run: as §2

wheat = experiment: Test C preemergence/postemergence greenhouse plant response rating 0 to 100; type: in vivo, Triticum aestivum; settings: POSTEMERGENCE; for Plant response rating, Wheat: 0 to 100 scale
How it was run: as §1

COc1cc(-c2nn3c(c2Cl)CCCC3)c(F)cc1Cl [Compound 29]
Plant response rating Ryegrass (ryegrass; 62 g/ha): 70 | Plant response rating Ryegrass (ryegrass; 250 g/ha): 90 | Plant response rating (0 to 100), Ryegrass (ryegrass; Rate 4 g/ha): 30 | Plant response rating (0 to 100), Ryegrass (ryegrass; Rate 16 g/ha): 60 | Plant response rating, Sugar beet (sugar beet; 62 g/ha): 100 | Plant response rating, Sugar beet (sugar beet; 250 g/ha): 100 | Plant response rating (0 to 100), Sugar beet (sugar beet; Rate 16 g/ha): 90 | Plant response rating, Wild buckwheat (wild buckwheat; POSTEMERGENCE, Rate 50 g/ha): 10 | Plant response rating, Wild buckwheat (wild buckwheat; PREEMERGENCE, Rate 50 g/ha): 8 | Plant response rating, Wild buckwheat (wild buckwheat; Rate 200 g/ha, POSTEMERGENCE): 10 | Plant response rating, Wild buckwheat (wild buckwheat; Rate 200 g/ha, PREEMERGENCE): 10 | Plant response rating, Blackgrass (blackgrass [1]; 62 g/ha): 50 | Plant response rating, Blackgrass (blackgrass [1]; 250 g/ha): 90 | Plant response rating (0 to 100), Blackgrass (blackgrass [1]; Rate 4 g/ha): 20 | Plant response rating (0 to 100), Blackgrass (blackgrass [1]; Rate 16 g/ha): 30 | Plant response rating (0 to 10 scale), Barley (barley; POSTEMERGENCE, Rate 50 g/ha): 5 | Plant response rating, Barley (barley; POSTEMERGENCE, Rate 200 g/ha): 7 | Plant response rating, Barley (barley; PREEMERGENCE, Rate 50 g/ha): 0 | Plant response rating, Barley (barley; Rate 200 g/ha, PREEMERGENCE): 4 | Plant response rating (0 to 10 scale), Bedstraw (bedstraw; POSTEMERGENCE, Rate 50 g/ha): 7 | Plant response rating, Bedstraw (bedstraw; POSTEMERGENCE, Rate 200 g/ha): 10 | Plant response rating, Bedstraw (bedstraw; PREEMERGENCE, Rate 50 g/ha): 7 | Plant response rating, Bedstraw (bedstraw; Rate 200 g/ha, PREEMERGENCE): 9 | Plant response rating (0 to 10 scale), Cocklebur (cocklebur; POSTEMERGENCE, Rate 50 g/ha): 6 | Plant response rating, Cocklebur (cocklebur; POSTEMERGENCE, Rate 200 g/ha): 10 | Plant response rating, Cocklebur (cocklebur; PREEMERGENCE, Rate 50 g/ha): 2 | Plant response rating, Cocklebur (cocklebur; Rate 200 g/ha, PREEMERGENCE): 4 | Plant response rating, Rape (rape; 62 g/ha): 100 | Plant response rating, Rape (rape; 250 g/ha): 100 | Plant response rating (0 to 100), Rape (rape; Rate 4 g/ha): 90 | Plant response rating (0 to 100), Rape (rape; Rate 16 g/ha): 100 | Plant response rating, Giant foxtail (giant foxtail; 62 g/ha): 70 | Plant response rating, Giant foxtail (giant foxtail; 250 g/ha): 100 | Plant response rating (0 to 100), Giant foxtail (giant foxtail; Rate 4 g/ha): 0 | Plant response rating (0 to 100), Giant foxtail (giant foxtail; Rate 16 g/ha): 20 | Plant response rating Lambsquarters (lambsquarters; 62 g/ha): 100 | Plant response rating Lambsquarters (lambsquarters; 250 g/ha): 100 | Plant response rating (0 to 100), Lambsquarters (lambsquarters; Rate 4 g/ha): 30 | Plant response rating (0 to 100), Lambsquarters (lambsquarters; Rate 16 g/ha): 60 | Plant response rating (0 to 100), Barnyardgrass (barnyardgrass; Rate 4 g/ha): 100 | Plant response rating (0 to 100), Barnyardgrass (barnyardgrass; Rate 16 g/ha): 100 | Plant response rating, Barnyardgrass (barnyardgrass; 62 g/ha): 100 | Plant response rating, Barnyardgrass (barnyardgrass; 250 g/ha): 100 | Plant response rating, Corn (corn; 62 g/ha): 40 | Plant response rating, Corn (corn; 250 g/ha): 50 | Plant response rating (0 to 100), Corn (corn; Rate 4 g/ha): 20 | Plant response rating (0 to 100), Corn (corn; Rate 16 g/ha): 20 | Plant response rating (0 to 10 scale), Cheatgrass (cheatgrass; POSTEMERGENCE, Rate 50 g/ha): 4 | Plant response rating, Cheatgrass (cheatgrass; POSTEMERGENCE, Rate 200 g/ha): 8 | Plant response rating, Cheatgrass (cheatgrass; PREEMERGENCE, Rate 50 g/ha): 5 | Plant response rating, Cheatgrass (cheatgrass; Rate 200 g/ha, PREEMERGENCE): 8 | Plant response rating (0 to 100), Duck salad (duck salad; POSTEMERGENCE section, flood test, Rate 4 g/ha): 20 | Plant response rating (0 to 100), Duck salad (duck salad; Rate 16 g/ha, under POSTEMERGENCE head (flood test species)): 85 | Plant response rating Duck salad (duck salad; 62 g/ha): 95 | Plant response rating Duck salad (duck salad; 250 g/ha): 100 | Plant response rating, Rice (rice; POSTEMERGENCE, Rate 50 g/ha): 4 | Plant response rating, Rice (rice; PREEMERGENCE, Rate 50 g/ha): 0 | Plant response rating, Rice (rice; Rate 200 g/ha, POSTEMERGENCE): 7 | Plant response rating, Rice (rice; Rate 200 g/ha, PREEMERGENCE): 2 | Plant response rating (0 to 10 scale), Blackgrass (blackgrass [2]; POSTEMERGENCE, Rate 50 g/ha): 3 | Plant response rating, Blackgrass (blackgrass [2]; POSTEMERGENCE, Rate 200 g/ha): 6 | Plant response rating, Blackgrass (blackgrass [2]; PREEMERGENCE, Rate 50 g/ha): 5 | Plant response rating, Blackgrass (blackgrass [2]; Rate 200 g/ha, PREEMERGENCE): 7 | Plant response rating (0 to 10 scale), Cotton (cotton; POSTEMERGENCE, Rate 50 g/ha): 10 | Plant response rating, Cotton (cotton; POSTEMERGENCE, Rate 200 g/ha): 10 | Plant response rating, Cotton (cotton; PREEMERGENCE, Rate 50 g/ha): 1 | Plant response rating, Cotton (cotton; Rate 200 g/ha, PREEMERGENCE): 7 | Plant response rating, Wheat (wheat; 62 g/ha): 80 | Plant response rating, Wheat (wheat; 250 g/ha): 95 | Plant response rating (0 to 100), Wheat (wheat; Rate 4 g/ha): 20 | Plant response rating (0 to 100), Wheat (wheat; Rate 16 g/ha): 30
